As usually defined, the pKD is −log10 of the KD, conventionally taken in molar units. What is called Kd is the equilibrium constant for the complex coming apart.

Holding throughout (type): binding
For one assay, the target named is T1, HSP72 (Homo sapiens, UniProt P0DMV8).
T1 construct: made in house
Kind of assay: Fluorescence polarisation probe KD determination with full-length HSP72. On the procedure:
(§1) To determine the binding affinity of bisaryl FP-probe 11 for HSP72, increasing concentrations of the protein were titrated against a fixed concentration (10 nM) of the FP-probe. […] We speculated that this decrease in apparent KD was due to the slow hydrolysis of the ATP-probe to ADP-ATTO-488 + Pi. Although HSP72 has low intrinsic ATPase activity,[8] the high enzyme concentration could catalyse hydrolysis over the time-frame of the assay, with the initial KD values reflective of the known modest affinity of ATP for HSP70, whilst the final KD value was consistent with the higher affinity ADP ligand.[14] […]
(§2) TRIS Tris(hydroxymethyl)aminomethane
(§3) General Information: Unless otherwise stated the aqueous assay buffer contained 50 mM TRIS base pH 7.4, 150 mM NaCl, 6 mM MgCl2, 1 mM DTT, 0.1% (wt/wt) CHAPS. The assay was conducted using 384 Plus F ProxiPlates (PerkinElmer) with a final assay volume of 10 μL. Plates were centrifuged at 1000 rpm for 1 minute prior to incubation and read using an 2103 Envision Multilable Plate Reader. Excitation and emission wavelengths used for green probes were 480 nm and 535 nm, respectively.
Fluorescence polarisation was measured in units of millipolarization (mP). All experiments were performed in triplicate, unless otherwise stated. Data were plotted and analysed using GraphPad Prism 6, graphical data represents the mean ± standard error of the mean for a single representative experiment. ATP-derived fluorescent probes (1.0 mM in aqueous) were purchased from Jena Bioscience. Human BAG-1M (10.9 μM in 20 mM TRIS base pH 7.4, 100 mM NaCl, 1 mM DTT, 1% (v/v) glycerol) was purchased from Enzo Life Sciences. […]
Fluorescence polarisation values for the tracer ± protein were plotted using GraphPad prism 6.
Fluorescent probe KD determination: To each well, 5 μL of probe molecule (20 nM in assay buffer) and increasing concentrations of HSP70 protein (5 μL, two-fold dilution series) were added. Fluorescence polarisation values for tracer control wells (10 nM probe in assay buffer only) were subtracted from each data point prior to data analysis. KD determination was performed using non-linear regression analysis (GraphPad Prism 6, one site–specific binding model). […]
BAG-1 titration: To each well, ATP-ATTO488 and HSP70 at two times their final concentration (5 µL in assay buffer) was added and the plate incubated in the dark for 16 hours. Increasing concentrations of BAG1 protein (5 μL, two-fold dilution series in 20 […]
(1 picture or pasted object on this page, not shown here)
On the technique in general: Polarisation of emitted light reports the rotation of a fluorescent probe.

A further assay addresses T2, TR-HSP72 (aa 3-382) (Homo sapiens, UniProt P0DMV8).
T2 construct: Truncated HSP72-NBD (residues 3 to 382); made in house
Nature of the assay: Fluorescence polarisation probe KD determination with truncated HSP72. Here is the method: as §1, §2, §3
Fluorescence polarisation was measured in units of millipolarization (mP). […] Data were plotted and analysed using GraphPad Prism 6, graphical data represents the mean ± standard error of the mean for a single representative experiment. […]

For a further assay, the target named is T3, BAG1 (Homo sapiens, UniProt Q99933).
T3 construct: purchased Enzo Life Sciences
T3 sequence (Q99933 1-274 isoform Q99933-3): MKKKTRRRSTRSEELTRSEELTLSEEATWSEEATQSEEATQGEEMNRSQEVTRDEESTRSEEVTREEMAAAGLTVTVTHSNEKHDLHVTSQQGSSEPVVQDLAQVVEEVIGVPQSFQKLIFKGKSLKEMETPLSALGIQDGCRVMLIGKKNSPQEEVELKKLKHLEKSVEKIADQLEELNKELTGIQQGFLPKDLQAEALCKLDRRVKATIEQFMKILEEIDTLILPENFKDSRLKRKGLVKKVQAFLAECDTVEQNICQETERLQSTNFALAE
Nature of the assay: FP of probes with BAG1 in the absence of HSP72. Particulars: 10 nM probe, 1 µM BAG1. Here is the method:
To assess what effect the secondary HSP72/BAG1 complex had on the apparent affinity of the non-nucleotide bisaryl-ATTO-488 FP-probe 11, we carried out a similar BAG1 study. […] To confirm that the binding of BAG1 to HSP72 was not mutually exclusive, we screened the nucleotides ADP and ATP in a competition assay with bisaryl-ATTO-488 11 and HSP72 at a 50% bound fraction, with and without a saturating concentration of BAG1 (700 nM) (Fig. S7, ESI ^†).
Fig. S4. Competitive displacement curve for bisarryl-ATTO-448 and HSP72 with compound 2. IC50 determination was performed using non-linear least squares curve fitting (GraphPad Prism 6, log(inhibitor) vs. response—variable slope (four parameters)), all data points were tested in triplicate and are represented as the arithmetic mean ± SEM. pKD=-log KD (M). pKD values are quoted as the geometric mean±SEM of n independent repeats.
Fig. S5. Bisaryl-ATTO-488 and ATP-ATTO-488 binding to truncated HSP72 and HSC70. Representative binding isotherms for bisaryl-ATTO-488 (blue) and ATP-ATTO-488 (red) binding to TR-HSP72 (aa 3-382) (•) and TR-HSC70 (aa 4-381) (x). KD determination was performed using non-linear regression analysis (one site–specific binding model), all data points were tested in triplicate and are represented as the arithmetic mean ± SEM. pKD=-log KD (M). pKD values are quoted as the geometric mean±SEM of n independent repeats.
Fig. S6. […]

Like-named read-outs stand apart in the source and are kept apart here.

T1 sequence (P0DMV8 whole entry): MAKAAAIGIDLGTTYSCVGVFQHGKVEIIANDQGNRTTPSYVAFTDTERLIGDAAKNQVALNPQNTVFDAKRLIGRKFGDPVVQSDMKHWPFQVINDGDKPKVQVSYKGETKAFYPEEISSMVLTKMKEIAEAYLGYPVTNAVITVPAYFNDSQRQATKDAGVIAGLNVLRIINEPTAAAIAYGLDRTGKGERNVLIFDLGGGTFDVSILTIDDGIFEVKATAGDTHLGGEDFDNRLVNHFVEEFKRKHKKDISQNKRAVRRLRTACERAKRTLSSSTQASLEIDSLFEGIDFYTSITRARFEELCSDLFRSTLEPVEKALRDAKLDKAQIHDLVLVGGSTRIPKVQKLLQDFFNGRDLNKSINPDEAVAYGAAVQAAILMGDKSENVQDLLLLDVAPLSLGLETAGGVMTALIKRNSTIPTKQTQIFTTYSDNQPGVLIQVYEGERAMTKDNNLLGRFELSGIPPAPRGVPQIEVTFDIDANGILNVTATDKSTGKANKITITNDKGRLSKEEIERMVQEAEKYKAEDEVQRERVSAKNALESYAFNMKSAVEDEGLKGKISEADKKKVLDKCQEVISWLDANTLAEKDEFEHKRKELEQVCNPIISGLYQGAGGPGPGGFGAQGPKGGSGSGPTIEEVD
T2 sequence (P0DMV8 3-382): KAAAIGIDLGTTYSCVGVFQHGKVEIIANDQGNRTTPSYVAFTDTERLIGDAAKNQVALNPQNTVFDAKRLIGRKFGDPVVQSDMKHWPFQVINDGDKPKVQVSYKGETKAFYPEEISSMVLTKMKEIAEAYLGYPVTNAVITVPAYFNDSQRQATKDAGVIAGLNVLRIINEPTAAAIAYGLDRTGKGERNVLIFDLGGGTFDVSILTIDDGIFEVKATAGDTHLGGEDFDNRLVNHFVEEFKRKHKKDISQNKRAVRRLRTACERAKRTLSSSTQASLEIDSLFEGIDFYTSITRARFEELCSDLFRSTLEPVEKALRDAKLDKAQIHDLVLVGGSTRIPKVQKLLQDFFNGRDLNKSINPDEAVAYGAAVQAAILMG

With `CN(CCCC(=O)NCCCCCCNc1ncnc2c1nc(NCc1ccc3ncccc3c1)n2[C@@H]1O[C@H](COCc2ccc(C(F)(F)F)cc2)[C@@H](O)[C@H]1O)C(=O)c1ccccc1-c1c2ccc(=N)c(S(=O)(=O)O)c-2oc2c(S(=O)(=O)O)c(N)ccc12` [compound 11], the “time-dependency of affinity for HSP72” value on HSP72 is “no apparent time-dependency”. Further, the pKD at HSP72 (10 nM probe, 0.1% (w/v) CHAPS, n = 4) came to 6.72 ± 0.04; on HSP72 (0.01% (v/v) Triton X-100, n = 3), 6.83; on TR-HSP72 (aa 3-382) it was 7.32. The equilibrium dissociation constant (Kd) on HSP72 (10 nM probe, 0.1% (w/v) CHAPS, read-out: KD) worked out at 194 nM; on HSP72 (0.01% (v/v) Triton X-100, read-out: KD), 150 nM; on HSP72 (without BAG1, Fig. S7 isotherm, read-out: KD - BAG1), 183 nM; at TR-HSP72 (aa 3-382) it was 50 nM. Besides, the results for the “interaction with BAG1 in the absence of HSP72” value at BAG1 and at BAG1 (listed as bisaryl-ATTO-488) were “No interaction” and “does not interact”, respectively.

Source of the values: paper PMC5708526, “Targeting secondary protein complexes in drug discovery: studying the druggability and chemical biology of the HSP70/BAG1 complex” (Chemical Communications (Cambridge, England), 2017).
